Measured values as given in patent publication US9694011B2, “Substituted pyrazolopyrimidines as kinases inhibitors” (JIANGSU MEDOLUTION LTD, priority 2013, dated 2017).

Key:
BTK = BTK (Homo sapiens (Human), UniProt Q06187); assay: in vitro kinase binding assay (Kd, phage-tagged kinase, qPCR)
Description: (§1) An in vitro assay which determines the ability of a test compound to inhibit EGFR (L858R), EGFR (L858R,T790M) and BTK kinases.
(§2) Kinase-tagged T7 phage strains were prepared in an E. coli host derived from the BL21 strain. E. coli were grown to log-phase and infected with T7 phage and incubated with shaking at 32° C. until lysis. The lysates were centrifuged and filtered to remove cell debris. The remaining kinases were produced in HEK-293 cells and subsequently tagged with DNA for qPCR detection. Streptavidin-coated magnetic beads were treated with biotinylated small molecule ligands for 30 minutes at room temperature to generate affinity resins for kinase assays. The liganded beads were blocked with excess biotin and washed with blocking buffer (SeaBlock (Pierce), 1% BSA, 0.05% Tween 20, 1 mM DTT) to remove unbound ligand and to reduce non-specific binding. Binding reactions were assembled by combining kinases, liganded affinity beads, and test compounds in 1× binding buffer (20% SeaBlock, 0.17×PBS, 0.05% Tween 20, 6 mM DTT). All reactions were performed in polystyrene 96-well plates in a final volume of 0.135 ml. The assay plates were incubated at room temperature with shaking for 1 hour and the affinity beads were washed with wash buffer (1×PBS, 0.05% Tween 20). The beads were then re-suspended in elution buffer (lx PBS, 0.05% Tween 20, 0.5 μM non-biotinylated affinity ligand) and incubated at room temperature with shaking for 30 minutes. The kinase concentration in the eluates was measured by qPCR.
(§3) An 11-point 3-fold serial dilution of each test compound was prepared in 100% DMSO at 100× final test concentration and subsequently diluted to 1× in the assay (final DMSO concentration=1%). Kds were determined using a compound top concentration=10,000 nM. If the initial Kd determined was <0.5 nM (the lowest concentration tested), the measurement was repeated with a serial dilution starting at a lower top concentration.
(§4) Binding constants (Kds) were calculated with a standard dose-response curve using the Hill equation: Response=Background+(Signal−Background)/(1+(Kd^Hill Slope/Dose^Hill Slope)). The Hill Slope was set to −1. Curves were fitted using a non-linear least square fit with the Levenberg-Marquardt algorithm.

EGFR (L858R) = EGFR (L858R) (Homo sapiens (Human), UniProt P00533, L858R); assay: as above
Description: as §1, §2, §3, §4

EGFR (L858R,T790M) = EGFR (L858R,T790M) (Homo sapiens (Human), UniProt P00533, L858R/T790M); assay: as above
Description: as §1, §2, §3, §4

[1] = system: cancer cell line NCI-H1975; assay: NCI-H1975 cell proliferation assay (MTT); format: cell-based; conditions: Homo sapiens, NCI-H1975 cells, 72 hours treatment
Description: A representative number of compounds were assayed against cancer cell line NCI-H1975 using the cell proliferation assay:
1. 5×10^3 cells per well in 100 μl of medium were seeded in 96-well plate, here the medium contained 5% FBS
2. 24 hours later, 100 μl fresh medium was added with various concentrations of compounds into each well, while the medium here was free of FBS
3. After the cells were treated with compounds for 72 hours, 20 μl MTT (5 mg/ml) was added into each well, and then the assay plate was incubated at 37° C. for 4 more hours.
4. The assay plate was centrifuged at 800 g for 10 min. The medium was aspirated, 150 μl DMSO was added into each well. The plate was gently shaked for 10 min.
5. The absorbance at 570 nm was measured on the plate reader.

Chain of EGFR (L858R,T790M) (P00533 25-1210 T790M/L858R): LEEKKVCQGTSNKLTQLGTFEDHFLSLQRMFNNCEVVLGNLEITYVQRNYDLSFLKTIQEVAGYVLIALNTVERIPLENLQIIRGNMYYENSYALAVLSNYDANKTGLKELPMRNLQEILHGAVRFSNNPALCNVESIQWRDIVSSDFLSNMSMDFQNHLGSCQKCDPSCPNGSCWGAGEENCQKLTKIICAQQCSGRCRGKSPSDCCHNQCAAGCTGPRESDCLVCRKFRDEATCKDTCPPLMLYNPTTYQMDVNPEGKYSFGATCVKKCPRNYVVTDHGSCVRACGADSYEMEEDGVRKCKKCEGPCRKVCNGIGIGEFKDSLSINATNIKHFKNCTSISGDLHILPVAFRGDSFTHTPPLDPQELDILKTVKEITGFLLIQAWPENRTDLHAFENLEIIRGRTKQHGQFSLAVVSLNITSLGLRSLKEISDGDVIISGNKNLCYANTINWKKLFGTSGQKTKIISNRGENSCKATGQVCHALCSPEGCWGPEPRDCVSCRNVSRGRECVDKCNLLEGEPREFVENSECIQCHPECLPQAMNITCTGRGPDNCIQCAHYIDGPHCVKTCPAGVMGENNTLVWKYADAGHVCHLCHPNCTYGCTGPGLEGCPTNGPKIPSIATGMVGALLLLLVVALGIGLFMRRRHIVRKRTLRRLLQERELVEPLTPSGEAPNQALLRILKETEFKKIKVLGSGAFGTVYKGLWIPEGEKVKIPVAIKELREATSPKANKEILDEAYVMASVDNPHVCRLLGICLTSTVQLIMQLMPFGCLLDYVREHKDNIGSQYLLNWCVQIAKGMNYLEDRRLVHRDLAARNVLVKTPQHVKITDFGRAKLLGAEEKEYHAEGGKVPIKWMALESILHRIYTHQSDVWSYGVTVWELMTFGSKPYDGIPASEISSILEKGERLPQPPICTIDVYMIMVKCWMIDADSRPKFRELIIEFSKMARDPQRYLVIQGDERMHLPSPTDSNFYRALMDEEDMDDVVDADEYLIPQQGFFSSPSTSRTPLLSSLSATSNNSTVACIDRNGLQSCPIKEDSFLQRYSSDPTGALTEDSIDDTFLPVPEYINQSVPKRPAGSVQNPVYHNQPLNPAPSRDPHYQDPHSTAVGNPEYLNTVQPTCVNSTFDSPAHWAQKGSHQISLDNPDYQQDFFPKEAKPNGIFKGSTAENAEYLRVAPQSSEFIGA
Chain of EGFR (L858R) (P00533 25-1210 L858R): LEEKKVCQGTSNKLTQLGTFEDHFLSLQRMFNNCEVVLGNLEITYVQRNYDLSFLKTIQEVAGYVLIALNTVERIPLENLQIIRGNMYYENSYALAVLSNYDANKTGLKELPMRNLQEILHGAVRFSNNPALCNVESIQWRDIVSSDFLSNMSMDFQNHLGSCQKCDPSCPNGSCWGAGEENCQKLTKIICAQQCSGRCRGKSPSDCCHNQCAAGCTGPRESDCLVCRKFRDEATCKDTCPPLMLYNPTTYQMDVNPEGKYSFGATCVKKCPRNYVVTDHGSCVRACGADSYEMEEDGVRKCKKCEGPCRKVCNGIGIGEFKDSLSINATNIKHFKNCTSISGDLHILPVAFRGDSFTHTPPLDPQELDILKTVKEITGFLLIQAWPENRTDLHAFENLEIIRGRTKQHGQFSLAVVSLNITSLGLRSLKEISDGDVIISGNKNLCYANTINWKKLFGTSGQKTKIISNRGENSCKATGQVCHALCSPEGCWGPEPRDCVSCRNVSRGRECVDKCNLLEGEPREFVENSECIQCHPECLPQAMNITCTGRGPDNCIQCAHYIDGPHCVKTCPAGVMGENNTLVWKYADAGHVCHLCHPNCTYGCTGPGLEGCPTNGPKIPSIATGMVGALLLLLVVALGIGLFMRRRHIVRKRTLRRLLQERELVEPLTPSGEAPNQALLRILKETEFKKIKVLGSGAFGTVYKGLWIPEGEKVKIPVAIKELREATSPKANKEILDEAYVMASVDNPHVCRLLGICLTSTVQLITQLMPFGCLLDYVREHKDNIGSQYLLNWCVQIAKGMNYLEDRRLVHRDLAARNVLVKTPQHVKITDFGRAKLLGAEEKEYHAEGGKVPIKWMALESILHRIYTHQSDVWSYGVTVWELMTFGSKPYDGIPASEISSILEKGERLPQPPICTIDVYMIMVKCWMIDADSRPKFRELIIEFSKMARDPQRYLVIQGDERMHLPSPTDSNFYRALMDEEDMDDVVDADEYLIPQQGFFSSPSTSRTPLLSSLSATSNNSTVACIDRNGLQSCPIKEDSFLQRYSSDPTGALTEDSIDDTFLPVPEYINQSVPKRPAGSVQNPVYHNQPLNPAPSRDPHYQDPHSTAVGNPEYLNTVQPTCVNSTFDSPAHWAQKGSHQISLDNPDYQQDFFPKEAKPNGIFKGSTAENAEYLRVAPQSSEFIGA
Chain of BTK (Q06187 whole entry): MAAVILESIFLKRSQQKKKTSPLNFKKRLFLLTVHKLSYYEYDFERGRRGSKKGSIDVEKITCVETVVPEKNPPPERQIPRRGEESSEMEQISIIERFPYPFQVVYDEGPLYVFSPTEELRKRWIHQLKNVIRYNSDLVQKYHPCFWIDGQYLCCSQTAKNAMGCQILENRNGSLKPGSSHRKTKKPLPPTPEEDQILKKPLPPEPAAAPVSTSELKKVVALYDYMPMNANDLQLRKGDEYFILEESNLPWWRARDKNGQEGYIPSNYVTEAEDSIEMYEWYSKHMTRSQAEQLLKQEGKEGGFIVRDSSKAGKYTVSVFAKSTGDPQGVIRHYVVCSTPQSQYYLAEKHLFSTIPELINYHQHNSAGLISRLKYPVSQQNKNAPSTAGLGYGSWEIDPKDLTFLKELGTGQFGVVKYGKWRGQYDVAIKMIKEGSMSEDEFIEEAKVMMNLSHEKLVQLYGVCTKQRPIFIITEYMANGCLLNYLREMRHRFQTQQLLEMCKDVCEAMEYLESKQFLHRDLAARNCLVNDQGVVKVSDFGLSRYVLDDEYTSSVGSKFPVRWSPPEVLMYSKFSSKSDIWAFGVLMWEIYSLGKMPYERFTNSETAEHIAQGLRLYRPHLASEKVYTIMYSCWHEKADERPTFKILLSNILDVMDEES

| Kd (BTK) [nM] | Kd (EGFR (L858R)) [nM] | Kd (EGFR (L858R,T790M)) [nM] | IC50 [1] [nM] | Structure (SMILES) |
| --- | --- | --- | --- | --- |
| < 10 | 54 | 270 |  | C=CC(=O)N1CCC[C@@H](n2nc(-c3ccc(Oc4ccc(F)cc4)cc3)c3c(N)ncnc32)C1 [Compound 17, (R)-1-(3-(4-amino-3-(4-(4-fluorophenoxy)phenyl)-1H-pyrazolo[3,4-d]pyrimidin-1-yl)piperidin-1-yl)prop-2-en-1-one] |
| < 10 | 6.3 | 9.3 | 494 | C=CC(=O)N1CCC[C@@H](n2nc(-c3ccc(Oc4ccccc4)c(Cl)c3)c3c(N)ncnc32)C1 [Compound 18, (R)-1-(3-(4-amino-3-(3-chloro-4-phenoxyphenyl)-1H-pyrazolo[3,4-d]pyrimidin-1-yl)piperidin-1-yl)prop-2-en-1-one] |
|  |  |  | > 2000 | C=CC(=O)N1CCC[C@@H](n2nc(-c3ccc(Oc4ccccc4)cc3)c3c(N)ncnc32)C1 [Ibrutinib, reference compound] |
